{"source": "patent US20060024392A1", "about": "“Compositions and methods for enhancing the effectiveness of a chemotherapeutic agent” (priority 2004, published 2006)", "tested_on": "HT29 colon cancer cells", "test": "Sulforhodamine B (SRB) cell growth assay in HT29 colon cancer cells", "assay_type": "cell-based", "procedure": "HT-29, a cell line derived from colorectal adenocarcinoma (ATCC, HTB 38), grows in McCoy's 5A medium (Biowhittaker, Inc. Walkersville, Md.). NCM460, a cell line derived from a normal human colon (InCell Corp. San Antonio, Tex.), grows in M3 Base media (InCell Corp. San Antonio, Tex.).\nBoth cell lines are kept at 37° C. and 5% CO2 atmosphere. Both media are supplemented with 10% fetal bovine serum (FBS, Biowhittaker, Inc. Walkersville, Md.).\nCells are fixed in situ by the gentle addition of 50 μl of cold 50% (w/v) TCA (final concentration, 10% TCA) and incubated for 60 minutes at 4° C. The supernatant is discarded, and the plates are washed five times with tap water and air dried. Sulforhodamine B (SRB) solution (100 μl) at 0.4% (w/v) in 1% acetic acid is added to each well, and plates are incubated for 10 minutes at room temperature. After staining, unbound dye is removed by washing five times with 1% acetic acid and the plates are air dried. Bound stain is subsequently solubilized with 100 μl 10 mM trizma base for 5 minutes, and the absorbance at wavelength of 490 nm was spectrophotometrically measured using a microplate reader Elx800 (Bio-Tek instruments, Inc.).\nCells were seeded in 96-well cluster tissue culture plates (Costar), containing 100 μl complete growth medium per well at densities of 5,000 cells per well. Incubated at 37° C. in a humidified tissue culture incubator. After 24 Hour, 100 μl complete medium containing 5 half-log dilutions of the 5FU from 2*10^−4 to 2*10^−6 M was added into each well (final concentrations are from 10^−4 to 10^−6 M). Six replicates were used for each concentration. Media containing 0.125% DMSO was used as control. After 48 hours of incubation with 5FU in medium, cell proliferation was assessed using the SRB assay.\nPercentage growth (Growth%) is calculated as: [(Ti−Tz)/(C−Tz)]×100 [absorbance measurements at time zero (Tz), control growth (C), and test growth in the presence of drug at the different concentration levels (Ti)].\nSimilar to the method used in testing GI50 of 5FU: HT29 was plated at 5000 cells per well. […] After 48 hour treatment, cell growth was assessed using SRB assay.\nThe protocol was the same as described above, except cells were exposed to 5FU at concentration ranging from 10^−4 to 10^−6 M with chokeberry ARE at concentration of 1.56, 5, 15.6, 50 μg monomeric anthocyanin/ml growth media.\nThe protocol was the similar to Experiment 1: Cells were exposed to half-log diluted SAC at concentration ranging from 3.2 to 1000 μM for 48 hour. Media containing 0.5% filtered water was used as control.\nThis experiment was to determine whether the antioxidant, SAC would enhance the effect of 5FU in HT29 cells. The protocol was the same as Experiment 3, except cells were exposed to 5FU at concentration ranging from 10^−4 to 10^−6 M with SAC at concentration of 10, 100, 1000 μM.", "key": {"[1]": {"settings": "SAC 3.2 μM, 48 hour, experiment 1"}, "[2]": {"settings": "SAC 3.2 μM, 48 hour, experiment 2"}, "[3]": {"settings": "SAC 10 μM, 48 hour, experiment 1"}, "[4]": {"settings": "SAC 10 μM, 48 hour, experiment 2"}, "[5]": {"settings": "SAC 32 μM, 48 hour, experiment 1"}, "[6]": {"settings": "SAC 32 μM, 48 hour, experiment 2"}, "[7]": {"settings": "SAC 100 μM, 48 hour, experiment 1"}, "[8]": {"settings": "SAC 100 μM, 48 hour, experiment 2"}, "[9]": {"settings": "SAC 320 μM, 48 hour, experiment 1"}, "[10]": {"settings": "SAC 320 μM, 48 hour, experiment 2"}, "[11]": {"settings": "SAC 1000 μM, 48 hour, experiment 1"}, "[12]": {"settings": "SAC 1000 μM, 48 hour, experiment 2"}, "[13]": {"settings": "Table 6 (1): SAC 1000 uM, 5FU 0"}, "[14]": {"settings": "Table 6 (2): SAC 1000 uM, 5FU 0"}}, "note": "Entries after “also recorded” stand apart in the source; their conditions may differ.", "data": [{"smiles": "C=CCSC[C@H](N)C(=O)O", "note": "[SAC, S-Allyl-cysteine]", "values": [{"measurement": "enhancement of 5FU toxicity by SAC", "setting": "5FU 10^−4 to 10^−6 M with SAC 10, 100, 1000 μM", "result": "No significant enhancement; also recorded: did not inhibit HT29 cell growth or enhance 5 FU toxicity"}, {"measurement": "Growth %", "setting": "[1]", "result": 101.17, "unit": "%"}, {"measurement": "OD", "setting": "[1]", "result": 0.66}, {"measurement": "Growth %", "setting": "[2]", "result": 102.24, "unit": "%"}, {"measurement": "OD", "setting": "[2]", "result": 0.682}, {"measurement": "Growth %", "setting": "[3]", "result": 98.37, "unit": "%"}, {"measurement": "OD", "setting": "[3]", "result": 0.648}, {"measurement": "Growth %", "setting": "[4]", "result": 94.17, "unit": "%"}, {"measurement": "OD", "setting": "[4]", "result": 0.646}, {"measurement": "Growth %", "setting": "[5]", "result": 92.77, "unit": "%"}, {"measurement": "OD", "setting": "[5]", "result": 0.624}, {"measurement": "Growth %", "setting": "[6]", "result": 98.43, "unit": "%"}, {"measurement": "OD", "setting": "[6]", "result": 0.665}, {"measurement": "Growth %", "setting": "[7]", "result": 92.77, "unit": "%"}, {"measurement": "OD", "setting": "[7]", "result": 0.624}, {"measurement": "Growth %", "setting": "[8]", "result": 98.21, "unit": "%"}, {"measurement": "OD", "setting": "[8]", "result": 0.664}, {"measurement": "Growth %", "setting": "[9]", "result": 81.59, "unit": "%"}, {"measurement": "OD", "setting": "[9]", "result": 0.576}, {"measurement": "Growth %", "setting": "[10]", "result": 101.35, "unit": "%"}, {"measurement": "OD", "setting": "[10]", "result": 0.678}, {"measurement": "Growth %", "setting": "[11]", "result": 86.95, "unit": "%"}, {"measurement": "OD", "setting": "[11]", "result": 0.599}, {"measurement": "Growth %", "setting": "[12]", "result": 98.65, "unit": "%"}, {"measurement": "OD", "setting": "[12]", "result": 0.666}, {"measurement": "inhibition of HT29 cancer cells by SAC", "setting": "SAC 3.2 to 1000 μM, 48 hour", "result": "did not show significant inhibition; also recorded: did not inhibit HT29 cell growth"}, {"measurement": "Growth %", "setting": "Table 6 (1): SAC 10 uM, 5FU 0", "result": 104.65, "unit": "%"}, {"measurement": "OD", "setting": "Table 6 (1): SAC 10 uM, 5FU 0", "result": 0.341}, {"measurement": "Growth %", "setting": "Table 6 (1): SAC 100 uM, 5FU 0", "result": 104.19, "unit": "%"}, {"measurement": "OD", "setting": "Table 6 (1): SAC 100 uM, 5FU 0", "result": 0.34}, {"measurement": "Growth %", "setting": "[13]", "result": 95.35, "unit": "%"}, {"measurement": "OD", "setting": "[13]", "result": 0.321}, {"measurement": "Growth %", "setting": "Table 6 (2): SAC 10 uM, 5FU 0", "result": 92.41, "unit": "%"}, {"measurement": "OD", "setting": "Table 6 (2): SAC 10 uM, 5FU 0", "result": 0.335}, {"measurement": "Growth %", "setting": "Table 6 (2): SAC 100 uM, 5FU 0", "result": 91.56, "unit": "%"}, {"measurement": "OD", "setting": "Table 6 (2): SAC 100 uM, 5FU 0", "result": 0.333}, {"measurement": "Growth %", "setting": "[14]", "result": 74.26, "unit": "%"}, {"measurement": "OD", "setting": "[14]", "result": 0.292}]}]}
